Measurements taken from PubChem BioAssay (NCI).
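Interpolation was linear, between the two tested concentrations surrounding the appropriate level; five concentrations were tested over 48 hours in 96-well plates. GI50 is the concentration that inhibits growth by half. TGI: concentration producing complete growth inhibition.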

Columns and labels:
Experiment in all cases: NCI tumour cell line growth inhibition, 48 h
[1] = system: ACHN renal
[2] = system: CAKI-1 renal
[3] = system: HCT-15 colon
[4] = system: HOP-62 NSCLC
[5] = system: IGROV1 ovarian
[6] = system: MOLT-4 leukemia
[7] = system: NCI-H226 lung
[8] = system: RXF 393 renal
[9] = system: U251 CNS
[10] = system: CCRF-CEM leukemia

SMILES | GI50 [1] | TGI [1] | GI50 [2] | TGI [2] | GI50 [3] | TGI [3] | GI50 [4] | TGI [4] | GI50 [5] | TGI [5] | GI50 [6] | TGI [6] | GI50 [7] | TGI [7] | GI50 [8] | TGI [8] | GI50 [9] | TGI [9] | TGI [10] | GI50 [10]
O=C(N/N=C/c1ccc(F)cc1)c1ccc(C(F)(F)F)nc1Nc1cccc(C(F)(F)F)c1 | 1.66 µM | 4.04 µM | 0.34 µM | 2.32 µM | 0.351 µM | 1.87 µM | 1.2 µM | 4.85 µM | 1.68 µM | 4.84 µM | 1.57 µM | 5.5 µM | 1.26 µM | 4.17 µM | 0.457 µM | 2.72 µM | 0.598 µM | 2.98 µM | – | –
OCC(O)C(O)C(O)C(O)c1nn[nH]n1 (stereo unspecified) | – | > 100 µM | – | > 100 µM | – | > 100 µM | – | > 100 µM | – | > 100 µM | – | > 100 µM | – | > 100 µM | – | – | – | > 100 µM | > 100 µM | –
CN(C)c1ccc(O[Si](Oc2ccc(N(C)C)cc2)(Oc2ccc(N(C)C)cc2)Oc2ccc(N(C)C)cc2)cc1 | – | > 100 µM | – | > 100 µM | – | – | – | > 100 µM | – | > 100 µM | – | > 100 µM | – | > 100 µM | – | – | – | > 100 µM | > 100 µM | –
CCOc1ccc(Nc2nc(-c3c(C)nc4ncccn34)cs2)cc1 | 0.0767 µM | 19.5 µM | 0.0144 µM | 15.8 µM | 0.0467 µM | 15.4 µM | 0.0306 µM | 18.4 µM | 0.0797 µM | 26.2 µM | 0.0539 µM | 20.4 µM | 2.81 µM | 22.6 µM | – | – | – | – | 17.3 µM | 0.0291 µM
O=C(/C=C(\[O-])c1ccccc1)CCCCCCC(=O)/C=C(\[O-])c1ccccc1.O=C(/C=C(\[O-])c1ccccc1)CCCCCCC(=O)/C=C(\[O-])c1ccccc1.O=C(/C=C(\[O-])c1ccccc1)CCCCCCC(=O)/C=C(\[O-])c1ccccc1.[Nd+3].[Nd+3] | > 50 µM | > 50 µM | > 50 µM | > 50 µM | > 50 µM | > 50 µM | > 50 µM | > 50 µM | > 50 µM | > 50 µM | 27.5 µM | > 50 µM | > 50 µM | > 50 µM | – | – | > 50 µM | > 50 µM | – | –
O=c1[nH]c2ccc([N+](=O)[O-])c(Cl)c2c2ccccc12 | – | 18.9 µM | – | 13.2 µM | – | > 100 µM | – | > 100 µM | – | 28.9 µM | – | 31.8 µM | – | 43.9 µM | – | – | – | 18 µM | 24.1 µM | –
O=C(Nc1ccc(C(F)(F)F)cc1[N+](=O)[O-])c1cccnc1 | – | > 100 µM | – | 8.11 µM | – | > 100 µM | – | > 100 µM | – | > 100 µM | – | > 100 µM | – | > 100 µM | – | – | – | > 100 µM | > 100 µM | –
Nc1ncc(C2[C@H](CNC(=O)c3cc(Br)c[nH]3)C(CNC(=O)c3cc(Br)c[nH]3)[C@@H]2c2cnc(N)[nH]2)[nH]1 (stereo partly specified) | > 50 µM | > 50 µM | > 50 µM | > 50 µM | > 50 µM | > 50 µM | > 50 µM | > 50 µM | > 50 µM | > 50 µM | 48.4 µM | > 50 µM | > 50 µM | > 50 µM | – | – | > 50 µM | > 50 µM | > 50 µM | > 50 µM
[Cl-].[Gd+3].[O-]/N=C(\c1ccccc1)c1ccccn1.[O-]/N=C(\c1ccccc1)c1ccccn1.[O-]/N=C(\c1ccccc1)c1ccccn1 | 64.3 µM | > 100 µM | 42.3 µM | > 100 µM | 48.4 µM | > 100 µM | 41.8 µM | > 100 µM | 81.4 µM | > 100 µM | 40.5 µM | > 100 µM | 40.4 µM | > 100 µM | – | – | 68.9 µM | > 100 µM | > 100 µM | 34.3 µM
O=C(Oc1ccc2c(c1)CN(Cc1ccccc1)CO2)c1ccccc1 | – | 32.9 µM | – | 37.8 µM | – | 36.2 µM | – | 38.6 µM | – | 27 µM | – | 54.1 µM | – | – | – | 30.4 µM | – | 31.2 µM | > 100 µM | –
NC(N)=N/N=C/c1c(-c2ccc(Cl)c([N+](=O)[O-])c2)nc2sc3ccccc3n12 | 0.862 µM | 1.56 µM | 1.66 µM | 8.49 µM | – | – | 11.6 µM | 28.1 µM | 11.8 µM | > 50 µM | – | – | 1.79 µM | 11.1 µM | 10.9 µM | 26.9 µM | 0.0951 µM | 0.177 µM | – | –
OCC#Cc1ccccc1C#Cc1ccc(C#Cc2ccccc2)cc1 | 18.9 µM | 37 µM | 44.5 µM | > 100 µM | 18.1 µM | 38.5 µM | – | – | 28.4 µM | > 100 µM | 2.65 µM | 43.5 µM | 18.4 µM | 43 µM | 26.2 µM | 54.3 µM | 19.9 µM | 38.6 µM | – | –
COC(=O)[C@]1(C)CCC[C@]2(C)[C@@H]1CCC13C[C@@H](C=CO1)[C@@H](C)CC32O (stereo partly specified) | > 100 µM | > 100 µM | 55.2 µM | > 100 µM | > 100 µM | > 100 µM | > 100 µM | > 100 µM | > 100 µM | > 100 µM | 24.5 µM | > 100 µM | > 100 µM | > 100 µM | 66.8 µM | > 100 µM | > 100 µM | > 100 µM | – | –
COc1ccc(-c2cc(-c3ccccc3)nc(NCCNc3ccnc4cc(Cl)ccc34)n2)cc1 | 1.7 µM | 3.16 µM | 1.57 µM | 2.96 µM | 0.591 µM | 2.09 µM | 1.87 µM | 3.7 µM | 1.46 µM | 3.18 µM | – | – | 1.96 µM | 4.56 µM | – | – | 1.75 µM | 3.38 µM | 1.21 µM | 0.306 µM
Oc1ccccc1C=Nc1nc(OCc2ccccc2)nc2[nH]ncc12 | 28 µM | > 100 µM | 14.2 µM | 50.5 µM | 38.3 µM | > 100 µM | 26.2 µM | 84.8 µM | 34.8 µM | > 100 µM | 21.5 µM | > 100 µM | 16.5 µM | 40.6 µM | 4.56 µM | 33.4 µM | 22.4 µM | 62 µM | – | –
COc1ccc(-c2cc(-c3ccco3)c(C#N)c(=O)[nH]2)cc1 | – | > 100 µM | – | – | – | > 100 µM | – | 72.1 µM | – | > 100 µM | – | > 100 µM | – | > 100 µM | – | > 100 µM | – | 40.1 µM | > 100 µM | –
